Reference: the supplement of paper PMC11061612

Columns and labels:
[1] = compound: C=CCn1c(=O)c2cnc(Nc3ccc(N4CCN(C)CC4)cc3)nc2n1-c1cccc(C(C)(C)O)n1 [AZD1775]; conditions: max 3 µM
In short: (§1)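 Cancer cell lines were dosed for 72 hours (final DMSO typically 0.2%) after 24 hours at 37°C and 5% CO2 in 1536-well plates containing 7.5 μl DMEM/F12 or RPMI with 10% FBS. Viability came from CellTiter-Glo 2.0 luminescence, scaled between blank-well and DMSO-well means, and dose responses were fitted to a two-parameter logistic curve with a non-linear mixed effects model. The single-agent IC50 was obtained from this fit.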

[2] = compound: CN(CC[C@H](CSC1=CC=CC=C1)NC2=C(C=C(C=C2)S(=O)(=O)NC(=O)C3=CC=C(C=C3)N4CCC(CC4)[C@H](C5=CC=CC=C5C6=CC=C(C=C6)Cl)O)S(=O)(=O)C(F)(F)F)CCO [AZD4320]; conditions: max 1 µM
In short: as §1

[3] = compound: COc1cccc(OCCCN)c1-c1cc(Nc2cnc(C#N)cn2)n[nH]1 [Prexasertib]; conditions: max 1 µM
In short: as §1

[4] = compound: CCN(CCO)CCCOc1ccc2c(Nc3cc(CC(=O)Nc4cccc(F)c4)[nH]n3)ncnc2c1 [AZD2811]; conditions: max 1 µM
In short: as §1

[5] = compound: CN(C)CCCOc1ccc(-c2ccc3ncc4c(c3c2)n(C2CCOCC2)c(=O)n4C)cn1 [AZD0156]; conditions: max 3 µM
In short: as §1

[6] = compound: Cn1cnc2c(F)c(Nc3ccc(Br)cc3Cl)c(C(=O)NOCCO)cc21 [Selumetinib]; conditions: max 10 µM
In short: as §1

[7] = compound: CC1=CN2[C@@H](C1)C=NC3=CC(=C(C=C3C2=O)OC)OCCCCCOC4=C(C=C5C(=C4)N=C[C@@H]6CC(=CN6C5=O)C)OC [SG3199]; conditions: max 0.001 µM
In short: as §1

[8] = compound: O=c1[nH]cc(F)c(=O)[nH]1 [5-Fluorouracil]; conditions: max 20 µM
In short: as §1

[9] = compound: C1CC(C1)(C(=O)[O-])C(=O)[O-].N.N.[Pt+2] [Carboplatin]; conditions: max 10 µM
In short: as §1

[10] = compound: C[C@@H](Oc1cc(-c2cnn(C3CCNCC3)c2)cnc1N)c1c(Cl)ccc(F)c1Cl [Crizotinib]; conditions: max 10 µM
In short: as §1

[11] = compound: O=C(Nc1ccc2[nH]nc(-c3ccncc3)c2c1)[C@@H]1CCN(CC(=O)N2CCN(c3ccc(-c4ncccn4)cc3)CC2)C1; conditions: max 5 µM
In short: as §1

[12] = compound: C[C@@H]1COCCN1C2=NC(=NC(=C2)C3(CC3)[S@](=N)(=O)C)C4=C5C=CNC5=NC=C4 [AZD6738]; conditions: max 10 µM
In short: as §1

[13] = compound: CC1(C)CCC(CN2CCN(c3ccc(C(=O)NS(=O)(=O)c4ccc(NCC5CCOCC5)c([N+](=O)[O-])c4)c(Oc4cnc5[nH]ccc5c4)c3)CC2)=C(c2ccc(Cl)cc2)C1 [Venetoclax]; conditions: max 1 µM
In short: as §1

[14] = compound: CC1=C(C(=CC=C1)Cl)NC(=O)C2=CN=C(S2)NC3=CC(=NC(=N3)C)N4CCN(CC4)CCO [Dasatinib]; conditions: max 2 µM
In short: as §1

[15] = compound: CC(C)n1c(=O)n(C)c2cnc3cc(F)c(-c4ccc(OCCCN5CCCCC5)nc4)cc3c21 [AZD1390]; conditions: max 0.3 µM
In short: as §1

[16] = compound: O=C(c1cc(Cc2n[nH]c(=O)c3ccccc23)ccc1F)N1CCN(C(=O)C2CC2)CC1 [Olaparib]; conditions: max 10 µM
In short: as §1

[17] = compound: COc1cc([C@@H]2c3cc4c(cc3[C@@H](O[C@@H]3O[C@@H]5CO[C@@H](C)O[C@H]5[C@H](O)[C@H]3O)[C@H]3COC(=O)[C@H]23)OCO4)cc(OC)c1O [Etoposide]; conditions: max 10 µM
In short: as §1

[18] = compound: CC(=O)Nc1cccc(-n2c(=O)n(C3CC3)c(=O)c3c(Nc4ccc(I)cc4F)n(C)c(=O)c(C)c32)c1 [Trametinib]; conditions: max 1 µM
In short: as §1

[19] = compound: CCc1c2c(nc3ccc(O)cc13)-c1cc3c(c(=O)n1C2)COC(=O)[C@]3(O)CC [SN-38]; conditions: max 0.3 µM
In short: as §1

[20] = compound: Cc1nc(-c2cn3c(n2)-c2ccc(-c4cnn(C(C)(C)C(N)=O)c4)cc2OCC3)n(C(C)C)n1 [Taselisib]; conditions: max 10 µM
In short: as §1

[21] = compound: CC(=O)c1c(C)c2cnc(Nc3ccc(N4CCNCC4)cn3)nc2n(C2CCCC2)c1=O [Palbociclib]; conditions: max 10 µM
In short: as §1

[22] = compound: Nc1ccn([C@@H]2O[C@H](CO)[C@@H](O)C2(F)F)c(=O)n1 [Gemcitabine]; conditions: max 0.3 µM
In short: as §1

[23] = compound: C[C@@H](c1ccc2nccn2c1)n1nnc2ncc(-c3cnn(C)c3)nc21 [Savolitinib]; conditions: max 1 µM
In short: as §1

[24] = compound: COc1cccc2c1C(=O)c1c(O)c3c(c(O)c1C2=O)C[C@@](O)(C(=O)CO)C[C@@H]3O[C@H]1C[C@H](N)[C@H](O)[C@H](C)O1 [Doxorubicin]; conditions: max 1 µM
In short: as §1

[25] = compound: COc1nnc2ccc(N3CCC(c4ccc(OCCN5CCN(C)C(=O)[C@H]5C)cc4)CC3)nn12 [AZD5153]; conditions: max 1 µM
In short: as §1

[26] = compound: CS(=O)(=O)CCNCc1ccc(-c2ccc3ncnc(Nc4ccc(OCc5cccc(F)c5)c(Cl)c4)c3c2)o1 [Lapatinib]; conditions: max 10 µM
In short: as §1

[27] = compound: COc1cc2ncnc(Nc3ccc(F)c(Cl)c3)c2cc1OCCCN1CCOCC1 [Gefitinib]; conditions: max 10 µM
In short: as §1

[28] = compound: C[C@@H](Nc1cc(F)cc(F)c1)c1cc(C(=O)N(C)C)cc2c(=O)cc(N3CCOCC3)oc12 [AZD8186]
In short: as §1

[29] = compound: CC(=O)O[C@H]1C(=O)[C@@]2(C)[C@H]([C@H](OC(=O)c3ccccc3)[C@]3(O)C[C@H](OC(=O)[C@H](O)[C@@H](NC(=O)c4ccccc4)c4ccccc4)C(C)=C1C3(C)C)[C@]1(OC(C)=O)CO[C@@H]1C[C@@H]2O [Paclitaxel]; conditions: max 3 µM
In short: as §1

[30] = compound: NC1(c2ccc(-c3nc4ccn5c(=O)[nH]nc5c4cc3-c3ccccc3)cc2)CCC1 [MK-2206]; conditions: max 10 µM
In short: as §1

[31] = compound: COc1cc(Nc2ncc3c(n2)-c2ccc(Cl)cc2C(c2c(F)cccc2OC)=NC3)ccc1C(=O)O [Alisertib]; conditions: max 10 µM
In short: as §1

[32] = compound: Cc1cc2ncnn2cc1Nc1ncc2c(n1)n(C1CCOCC1)c(=O)n2C [AZD7648]; conditions: max 10 µM
In short: as §1

[33] = compound: N#Cc1cnc(Nc2cc(NC[C@H]3CNCCO3)c(C(F)(F)F)cn2)cn1 [SRA737]; conditions: max 10 µM
In short: as §1

[34] = compound: Cc1c2c(nn1C)CSCc1cc(n(C)n1)CSc1cc(c3ccccc3c1)OCCCc1c(C(=O)O)n(C)c3c-2c(Cl)ccc13 [AZD5991]; conditions: max 1 µM
In short: as §1

[35] = compound: C1CN(CCC1(C(=O)N[C@@H](CCO)C2=CC=C(C=C2)Cl)N)C3=NC=NC4=C3C=CN4 [AZD5363]; conditions: max 10 µM
In short: as §1

[36] = compound: C1CN(CCC1(C(=O)N[C@@H](CCO)C2=CC=C(C=C2)Cl)N)C3=NC=NC4=C3C=CN4 [Capivasertib]; conditions: max 10 µM
In short: as §1

Row | Cell Line | IC50, cell viability 72 h [1] [nM] | IC50, cell viability 72 h [2] [nM] | IC50, cell viability 72 h [3] [nM] | IC50, cell viability 72 h [4] [nM] | IC50, cell viability 72 h [5] [nM] | IC50, cell viability 72 h [6] [µM] | IC50, cell viability 72 h [7] [nM] | IC50, cell viability 72 h [8] [µM] | IC50, cell viability 72 h [9] [µM] | IC50, cell viability 72 h [10] [µM] | IC50, cell viability 72 h [11] [µM] | IC50, cell viability 72 h [12] [µM] | IC50, cell viability 72 h [13] [nM] | IC50, cell viability 72 h [14] [nM] | IC50, cell viability 72 h [15] [nM] | IC50, cell viability 72 h [16] [µM] | IC50, cell viability 72 h [17] [µM] | IC50, cell viability 72 h [18] [nM] | IC50, cell viability 72 h [19] [nM] | IC50, cell viability 72 h [20] [nM] | IC50, cell viability 72 h [21] [µM] | IC50, cell viability 72 h [22] [nM] | IC50, cell viability 72 h [23] [nM] | IC50, cell viability 72 h [24] [nM] | IC50, cell viability 72 h [25] [nM] | IC50, cell viability 72 h [26] [µM] | IC50, cell viability 72 h [27] [µM] | IC50, cell viability 72 h ([28]; max 10 µM) [µM] | IC50, cell viability 72 h [29] [nM] | IC50, cell viability 72 h [30] [µM] | IC50, cell viability 72 h [31] [µM] | IC50, cell viability 72 h [32] [µM] | IC50, cell viability 72 h [33] [µM] | IC50, cell viability 72 h [34] [nM] | IC50, cell viability 72 h [35] [µM] | IC50, cell viability 72 h [36] [nM] | IC50, cell viability 72 h ([28]; max 3 µM) [µM]
1 | KINGS-1 (Low Grade Glioma) | > 3000 | > 1000 | > 1000 | > 1000 | > 3000 | > 10 | > 1 | > 20 | > 10 | > 10 | > 5 | > 10 | > 1000 | > 2000 | > 300 | > 10 | > 10 | > 1000 | > 300 | > 10000 | > 10 | > 300 | > 1000 | > 1000 | > 1000 | > 10 | > 10 | > 10 | > 3000 | > 10 | > 10 | > 10 | > 10 | > 1000 | > 10 |  | 
2 | LC4-1 (B-Lymphoblastic Leukemia) | 269 | 2.54 | 11.8 | 11.1 | > 3000 | > 10 | > 1 | 9.63 | > 10 | 3 | 3.95 | 1.28 | 3.63 | > 2000 | > 300 | > 10 | 0.355 | > 1000 | 2.26 | > 10000 | 4.23 | 30.9 | > 1000 | 83.3 | 74.3 | 6.11 | > 10 | > 10 | 6.82 | > 10 | 0.529 | > 10 | 3.64 | 220 | > 10 |  | 
3 | NB7 (Neuroblastoma) | 963 | > 1000 | 72 | > 1000 | > 3000 | > 10 | > 1 | > 20 | > 10 | > 10 | > 5 | > 10 | > 1000 | > 2000 | > 300 | > 10 | 6.52 | > 1000 | 34.9 | > 10000 | > 10 | 141 | > 1000 | > 1000 | > 1000 | > 10 | > 10 | > 10 | 268 | > 10 | 6.06 | > 10 | > 10 | > 1000 | > 10 |  | 
4 | NCI-N87 (Gastric Carcinoma) | 1690 | > 1000 | 75.5 | > 1000 | > 3000 | > 10 | > 1 | > 20 | > 10 | > 10 | > 5 | 4.36 | > 1000 | 1850 | > 300 | > 10 | 6.74 | 404 | 59.8 | 218 | > 10 | 88.7 | > 1000 | 423 | > 1000 | 0.077 | 1.96 | > 10 | 430 | 6.77 | > 10 | > 10 | > 10 | > 1000 | 4.23 |  | 
5 | PF-382 (T-Lymphoblastic Leukemia) | 331 | 175 | 17.2 | 34.4 | > 3000 | > 10 | > 1 |  |  | 4.07 |  | 3.22 | > 1000 | 207 | > 300 | > 10 |  | > 1000 | 3.65 | 2780 | 2.08 |  | > 1000 | 85.8 | 79 | > 10 | > 10 |  |  | 1.5 | 0.391 | > 10 |  | > 1000 |  | 2250 | > 3
